For this experiment, the target named is T1, Bcl-XL (Homo sapiens, UniProt Q07817).
T1 construct: gene BCL2L1; mCerulean3-Bcl-XL fusion expressed in MCF-7 cells
Description: live-cell FLIM-FRET displacement of Venus-Bad from mCer3-Bcl-XL in MCF-7 cells. It is filed as cell-based.

A value given as a limit tells only on which side of the number the result lay.

T1 sequence (Q07817 whole entry, the tested form may be a part): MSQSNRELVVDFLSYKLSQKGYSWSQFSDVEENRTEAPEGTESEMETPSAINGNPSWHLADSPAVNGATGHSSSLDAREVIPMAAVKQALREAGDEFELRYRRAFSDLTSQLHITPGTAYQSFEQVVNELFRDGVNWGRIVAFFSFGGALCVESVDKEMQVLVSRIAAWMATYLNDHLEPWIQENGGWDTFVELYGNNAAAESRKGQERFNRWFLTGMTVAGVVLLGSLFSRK

As a reminder, the IC50 is the concentration at which inhibition is half-maximal. A low value points to greater potency. With `CN(C)CC#Cc1ccc(OCCCc2sc(N3CCc4cccc(C(=O)Nc5nc6ccccc6s5)c4C3)nc2C(=O)O)c(F)c1` [A-1155463], the IC50 was less than 1250 nM.

(Values after paper PMC6414199, “Bim escapes displacement by BH3-mimetic anti-cancer drugs by double-bolt locking both Bcl-XL and Bcl-2” (eLife, 2019).)
